Reference: patent US11167039B2, “MET antibody drug conjugates” (priority 2016, dated 2021)
Entries after “also recorded” stand apart in the source; their conditions may differ.

Tests used:
[1] = tested on: BxPC-3; assay: Cell killing, BxPC-3; format: cell-based, human; set-up: key: Sensitive; Resistant; details: BxPC-3, PANC Ca
Experimental: (§1) Briefly described, 2-3×10^3 cells/well in 100 μL of culture medium may be plated in 96 well plates and incubated overnight at 37° C., 5% CO2. The MET-ADCs, MET antibody(ies), control MMAE or control hIgG4 conjugated to MMAE with cysteine conjugation antibody(ies) may be diluted 1:3 in serum-free culture medium starting from 100 nM (final) in 50 μL as 3× concentrations to the HT-29 cells. At the end of an additional 5-6 days of cell growth at 37° C. in a humidified incubator with 5% CO2, the plates may be equilibrated to room temperature for 30 minutes and 100 μL/well of CellTiter-Glo® reagent (Promega Corp., Fitchburg, Wis.) may then be added to assess cell viability. Cell viability may be determined by measuring luminescence.
(§2) Various tumor cell lines and normal human cells may be tested for MET-ADC induced cell killing activity essentially as described above in Example 10 as assessed for MET receptor density. MET cell surface density was determined by indirect immunofluorescence staining of cell surface antigens on cultured cells using QIFIKIT (Dako). […] Following a forty-five minute incubation, cells may be incubated for 1 hour on ice with FITC conjugated antibody diluted 1:50 in FACS buffer. Then cells may be washed and receptor numbers may be determined by indirect immunofluorescence staining of the QIFIKIT beads using a Becton Dickinson LSRII flow cytometer.

[2] = tested on: KP-4; assay: Cell killing, KP-4; format: cell-based, human; set-up: key: Sensitive; Resistant; details: KP-4, PANC Ca
Experimental: as §1, §2

[3] = tested on: L55; assay: Cell killing, L55; format: cell-based, human; set-up: key: Sensitive; Resistant; details: L55, NSCLC
Experimental: as §1, §2

[4] = tested on: GEO; assay: Cell killing, GEO; format: cell-based, human; set-up: key: Sensitive; Resistant; details: Colorectal Ca
Experimental: as §1, §2

[5] = tested on: humen fresh hepatocyte; assay: Cell killing, fresh hepatocyte; format: cell-based, human; set-up: key: Sensitive; Resistant
Experimental: as §1, §2

[6] = tested on: HuAEC; assay: Cell killing, non-tumor HuAEC; format: cell-based, human; set-up: key: Sensitive; Resistant; details: aortic endothelia cell
Experimental: as §1, §2

[7] = tested on: OV79; assay: Cell killing, OV79; format: cell-based, human; set-up: key: Sensitive; Resistant; details: OV79, Ovarian Ca
Experimental: as §1, §2

[8] = tested on: HCC827; assay: Cell killing, HCC827; format: cell-based, human; set-up: key: Sensitive; Resistant; details: HCC827, NSCLC
Experimental: as §1, §2

[9] = tested on: A204; assay: Cell killing, A204; format: cell-based, human; set-up: key: Sensitive; Resistant; details: A204, Rhabdomyosarcoma
Experimental: as §1, §2

[10] = tested on: Panc-1; assay: Cell killing, Panc-1; format: cell-based, human; set-up: key: Sensitive; Resistant; details: Panc-1, PANC Ca
Experimental: as §1, §2

[11] = tested on: Hs746T xenografts; assay: Hs746T gastric cancer xenograft model; format: in vivo, mouse; details: 3 mg/kg once per week for 4 weeks
Experimental: (§3) Female athymic nude mice age 6- to 7-weeks old are available commercially, including from Harlan Laboratories (Indianapolis, Ind.). The mice are allowed to acclimate for one week and fed ad libitum on a normal low fat (4.5%) diet, which may be continued for the duration of the study. Tumor cells may be purchased from ATCC and may be cultured in cell culture media such as RPMI 1640 (Life Technologies) with L-glutamine, 25 mM HEPES supplemented with 10% FBS and 1 mM Na Pyruvate. Cells may be detached, washed with serum free medium and then resuspended at a final concentration of 50×10^6 cells/mL in serum free RPMI 1640. Tumor cells, approximately 5×10^6, may be injected subcutaneously in the rear flank of subject mice in a 1:1 mixture of serum free growth medium and Matrigel (Becton Dickinson, Bedford, Mass.). Tumor and body weight measurements may be performed twice weekly. Prior to treatment, mice can be randomized based on tumor size using a randomization algorithm. Treatments may be started when the average tumor volume reaches 100 mm^3. […]
(§4) MET-ADCs and control hIgG4-MMAE may be prepared in Phosphate Buffered Saline (PBS) prior to dose. Tumor size may be determined by caliper measurements. […] Log volume data can be analyzed with two-way repeated measures ANOVA by time and treatment using SAS PROC MIXED software (SAS Institutes Inc, Cary, N.C.). […]

[12] = tested on: CFPAC-1; assay: Cell killing, CFPAC-1; format: cell-based, human; set-up: key: Sensitive; Resistant; details: CFPAC-1, PANC Ca
Experimental: as §1, §2

[13] = tested on: Su.86.86; assay: Cell killing, Su.86.86; format: cell-based, human; set-up: key: Sensitive; Resistant; details: Su.86.86, PANC Ca
Experimental: as §1, §2

[14] = tested on: NCI-H292; assay: Cell killing, NCI-H292; format: cell-based, human; set-up: key: Sensitive; Resistant; details: NCI-H292, NSCLC
Experimental: as §1, §2

[15] = tested on: humen fresh activated PBMC; assay: Cell killing, fresh activated PBMC; format: cell-based, human; set-up: key: Sensitive; Resistant; details: 3 donors
Experimental: as §1, §2

[16] = tested on: HCT-116; assay: Cell killing, HCT-116; format: cell-based, human; set-up: key: Sensitive; Resistant; details: HCT-116, Colorectal Ca
Experimental: as §1, §2

[17] = tested on: HPAF-II; assay: Cell killing, HPAF-II; format: cell-based, human; set-up: key: Sensitive; Resistant; details: PANC Ca
Experimental: as §1, §2

[18] = tested on: SNU1196; assay: Cell killing, SNU1196; format: cell-based, human; set-up: key: Sensitive; Resistant; details: SNU1196, Cholangiocarcinoma
Experimental: as §1, §2

[19] = tested on: cholangiocarcinoma PDX tumors; assay: Cholangiocarcinoma PDX model; format: in vivo, mouse; details: 5 mg/kg weekly, four doses; 4 cholangiocarcinoma PDX
Text: Body weight can also be assessed regularly.
Tumor samples from 4 human cholangiocarcinoma patients were individually implanted into different immunocompromised mice (i.e., each mouse carried one tumor derived from a patient's cholangiocarcinoma tumor) essentially as described above in this Example 13.

[20] = tested on: KP-4 xenograft; assay: KP-4 pancreatic cancer xenograft model; format: in vivo, mouse; details: vs control hIgG4-Lys-ADC
Experimental: as §3, §4

[21] = tested on: SNU-5; assay: Cell killing, SNU-5; format: cell-based, human; set-up: key: Sensitive; Resistant; details: SNU-5, Gastric Ca
Experimental: as §1, §2

MET-ADC#1: emibetuzumab lysine-conjugated via (2,5-dioxopyrrolidin-1-yl) 2-azidoacetate and Octyne-β-Glucn-MMAE
Sensitive/ Resistant [1]: S | Sensitive/ Resistant [2]: S | Sensitive/ Resistant [3]: R | Sensitive/ Resistant [4]: R | Sensitive/ Resistant [5]: R | Sensitive/ Resistant [6]: R | Sensitive/ Resistant [7]: S | Sensitive/ Resistant [8]: S | Sensitive/ Resistant [9]: R | Sensitive/ Resistant [10]: R | antitumor efficacy [11]: significantly greater antitumor efficacy than the IgG4 Lys-MMAE control treatments; also recorded: durable and complete tumor regression | Sensitive/ Resistant [12]: R | Sensitive/ Resistant [13]: R | Sensitive/ Resistant [14]: S | Sensitive/ Resistant [15]: R | Sensitive/ Resistant [16]: R | Sensitive/ Resistant [17]: S | Sensitive/ Resistant [18]: R | inhibition of tumor growth [19]: dramatically inhibited tumor growth | anti-tumor activity [20]: dramatic anti-tumor activity | Sensitive/ Resistant [21]: S
